According to patent US20240368123A1, “AROMATIC RING-CONTAINING BIOLOGICAL ANTAGONIST, AND PREPARATION METHOD THEREFOR AND USE THEREOF” (SHANGHAI HANSOH BIOMEDICAL CO., LTD., priority 2021, published 2024):

Legend:
[1] = system: spontaneously hypertensive rat (SHR) model; test: Pharmacodynamic evaluation on blood pressure in spontaneously hypertensive rats; format: in vivo; settings: P.O, 30 mpk, 1-8 h after administration, P<0.05
Description: This experiment used a spontaneously hypertensive rat (SHR) model to evaluate the pharmacodynamic effect of the test compounds on the blood pressure and heart rate of the model.
Kent Scientific CODA non-invasive blood pressure system.
Spontaneously hypertensive rats (SHR) were provided by Beijing Vital River Laboratory Animal Technology Co., Ltd., male, 150-200 g, 13-15 weeks old, 50 rats.
After animals arrived at the experimental facility, the animals were adapted to the animal facility for 5-7 days. 4.2 After the adaptation period, the animals were adapted to the tail oversleeve restrain for 3 days, and the tail oversleeve restrain was performed twice a day. After the last restrain adaptation, the basal blood pressure was measured, and the animals were randomly divided into groups according to the basal blood pressure. There was no significant difference between the average systolic blood pressure of animals in each group, and the number of animals in each group met the requirements of statistical testing and pharmacodynamic guidelines. 4.3 On the second day after grouping, the animals were administered according to experimental design and grouping (P.O, 5 mL/kg), and the systolic blood pressure (SBP), diastolic blood pressure (DBP), mean arterial pressure (MAP) and heart rate (HR) of the animals were measured before administration and at 1, 2, 4, 6, 8 and 24 h after administration using tail oversleeve method.
Statistical differences between groups were analyzed by Two-way ANOVA test. Among them, P<0.05 indicated a significant difference, and P<0.01 indicated an extremely significant difference.

[2] = Liver microsomal metabolism stability test, human; format: in vitro ADME; settings: human liver microsomes, 60 min
Procedure: (§1) The purpose of this experiment was to detect the stability of the example compounds in liver microsomes of rats, dogs and humans.
(§2) • Formulation of working solution of compounds: compound stock solution was added to phosphate buffer to a final concentration of 20 μM.
(§3) Dilution was performed with 100 mM phosphate buffer to a final concentration of 0.625 mg/mL.
(§4) NADPH (reduced nicotinamide adenine dinucleotide phosphate) and UDPGA (uridine diphosphate glucuronic acid) were weighed, 100 mM phosphate buffer was added, and the final concentration was 20 mM.
(§5) 1 mg of Alamethicin was weighed, and 200 μL of DMSO was added to formulate a 5 mg/mL solution. Then dilution was performed with phosphate buffer to a final concentration of 50 μg/mL.
(§6) Stop solution: the stop solution contains 100 ng/mL labetalol hydrochloride and 400 ng/mL tolbutamide and cold acetonitrile as internal standard.
(§7) 400 μL of formulated liver microsomes, 25 μL of compound working solution and 25 μL of Alamethicin were added in sequence to the 96-well plate, and pre-incubated at 37° C. for 10 min. Then 50 μL of formulated NADPH/UDPGA was added to start the reaction and the mixture was incubated at 37° C. The total volume of the reaction system was 500 μL. The final contents of each component are as follows:
(§8) • Instrument: Shimadzu LC-30 AD; • Chromatographic column: XBridge® C18 (50*4.6 mm, 5 μm particle size); • Mobile phase: A: 0.1% formic acid solution, B: methanol Wash gradient: 0.2-1.6 min 5% A to 95% A, 3.0-3.1 min 95% A to 5% A Run time: 4.0 min.
(§9) • Instrument: API5500 liquid chromatography mass spectrometer, AB Sciex; • Ion source: electrospray ionization source (ESI); • Drying gas: N2, temperature 500° C.; • Electrospray voltage: 5000 V; • Detection mode: positive ion detection; • Scanning mode: reaction monitoring (MRM) mode.

[3] = Liver microsomal metabolism stability test, rat; format: in vitro ADME; settings: rat liver microsomes, 60 min
Procedure: as §1, §2, §3, §4, §5, §6, §7, §8, §9

[4] = Liver microsomal metabolism stability test, dog; format: in vitro ADME; settings: dog liver microsomes, 60 min
Procedure: as §1, §2, §3, §4, §5, §6, §7, §8, §9

Row | Structure (SMILES) | blood pressure (systolic blood pressure, diastolic blood pressure, mean arterial pressure) compared with the vehicle group [1] | Remaining rate [2] [%] | Remaining rate [3] [%] | Remaining rate [4] [%]
1 | [2H]C([2H])(c1ccc(-c2ccccc2S(=O)(=O)Nc2noc(C)c2Cl)c(COCC)c1)N1C(=O)C2(CCCC2)N=C1CCCC [Example 44, 4′-((2-butyl-4-oxo-1,3-diazaspiro[4.4]non-1-en-3-yl)methyl-d2)-N-(4-chloro-5-methylisoxazol-3-yl)-2′-(ethoxymethyl)-[1,1′-biphenyl]-2-sulfonamide] | significantly reduced blood pressure | 33.0 | 29.4 | 24.6
2 | CCCCC1=NC2(CCCC2)C(=O)N1Cc1ccc(-c2ccccc2S(=O)(=O)Nc2noc(C)c2Cl)c(COCC)c1 [Example 45, 2-[4-[(2-butyl-4-oxo-1,3-diazaspiro[4.4]non-1-en-3-yl)methyl]-2-(ethoxymethyl)phenyl]-N-(4-chloro-5-methyl-isoxazol-3-yl)benzsulfamide] | significantly reduced blood pressure | 32.0 | 23.3 | 23.6
